Reference: US4104469A, “7-(Syn-α-alkoxy-iminofuryl)acetamido-3-(2-methyl-2,3-dihydro-s-t riazolo[4,3-b]pyridazin-3-on-6-ylthiomethyl)-3-cephem-4-carboxylic acids” (Bristol-Myers Company, priority 1977, dated 1978)
Counter-ions that a name gives are not always drawn. Like-named read-outs stand apart in the source and are kept apart here.

What was measured:
Format in all cases: cell-based
S. marcescens [1] = experiment: MIC against 18 strains of S. marcescens (Table 3); details: Serratia marcescens, read-out: Geometric Means of MIC's
From the text: | Geometric Means of MIC's Against 18 Strains |of S. marcescens

Kl. pneumoniae = experiment: In vitro antibacterial activity, Mueller-Hinton agar serial dilution (Table 1); details: Klebsiella pneumoniae, 4 strains, serial dilution method, read-out: Geometric Mean of MIC
From the text: (§1) In vitro Activity Using Mueller-Hinton Agar
(§2) By the Serial Dilution Method

D. pneumoniae = experiment: as above; details: Streptococcus pneumoniae, 5 strains, serial dilution method, read-out: Geometric Mean of MIC
From the text: as §1, §2

S. aureus = experiment: as above; details: Staphylococcus aureus, 3 strains, serial dilution method, read-out: Geometric Mean of MIC
From the text: as §1, §2

S. viridans = experiment: as above; details: Streptococcus viridans, 5 strains, serial dilution method, read-out: Geometric Mean of MIC
From the text: as §1, §2

Proteus = experiment: as above; details: read-out: Geometric Mean of MIC
From the text: as §1, §2

[2] = test system: Shig.(3), Serr.(1) Enterab.(1), Sal.(2) B. -B. (1); experiment: as above; details: pooled Shig.(3), serial dilution method, read-out: Geometric Mean of MIC
From the text: as §1, §2

E. coli [3] = experiment: as above; details: Escherichia coli, 7 strains, serial dilution method, read-out: Geometric Mean of MIC
From the text: as §1, §2

S. pyogenes = experiment: as above; details: Streptococcus pyogenes, read-out: Geometric Mean of MIC
From the text: as §1, §2

N. meningitidis = experiment: as above; details: Neisseria meningitidis, 5 strains, serial dilution method, read-out: Geometric Mean of MIC
From the text: as §1, §2

N. gonorrhoeae = experiment: as above; details: Neisseria gonorrhoeae, 5 strains, serial dilution method, read-out: Geometric Mean of MIC
From the text: as §1, §2

H. influenzae = experiment: as above; details: Haemophilus influenzae, 7 strains, serial dilution method, read-out: Geometric Mean of MIC
From the text: as §1, §2

bacteria = experiment: In vitro antibacterial potency; details: compared with corresponding compound lacking 2-methyl group (BB-S515)
E. coli, Cephalosporin-R = experiment: MIC on Mueller-Hinton agar (Table 2); details: Escherichia coli, 1 strain, read-out: Geometric Means of MIC's
From the text: (§3) Geometric Means of MIC's Against 3 Strains
(§4) of S. aureus and 27 Strains of Gram-negative Bacteria
(§5) (mcg./ml., Mueller-Hinton Agar)

[4] = test system: Indole (+) Proteus, Cephalosporin-R; experiment: MIC on Mueller-Hinton agar (Table 2); details: 2 strains, read-out: Geometric Means of MIC's
From the text: as §3, §4, §5

E. coli [5] = experiment: MIC on Mueller-Hinton agar (Table 2); details: Escherichia coli, 6 strains, read-out: Geometric Means of MIC's
From the text: as §3, §4, §5

Shigella, Salmonella = experiment: MIC on Mueller-Hinton agar (Table 2); details: 5 strains, read-out: Geometric Means of MIC's
From the text: as §3, §4, §5

Indole (-) Proteus = experiment: MIC on Mueller-Hinton agar (Table 2); details: 2 strains, read-out: Geometric Means of MIC's
From the text: as §3, §4, §5

P. aeruginosa = experiment: MIC on Mueller-Hinton agar (Table 2); details: Pseudomonas aeruginosa, 2 strains, read-out: Geometric Means of MIC's
From the text: as §3, §4, §5

S. aureus, Penicillin-R = experiment: MIC on Mueller-Hinton agar (Table 2); details: Staphylococcus aureus, 2 strains, read-out: Geometric Means of MIC's
From the text: as §3, §4, §5

Indole (+) Proteus = experiment: MIC on Mueller-Hinton agar (Table 2); details: 3 strains, read-out: Geometric Means of MIC's
From the text: as §3, §4, §5

S. marcescens [6] = experiment: MIC on Mueller-Hinton agar (Table 2); details: Serratia marcescens, 1 strain, read-out: Geometric Means of MIC's
From the text: as §3, §4, §5

E. cloacae = experiment: MIC on Mueller-Hinton agar (Table 2); details: Enterobacter cloacae, 1 strain, read-out: Geometric Means of MIC's
From the text: as §3, §4, §5

K. pneumoniae = experiment: MIC on Mueller-Hinton agar (Table 2); details: Klebsiella pneumoniae, 4 strains, read-out: Geometric Means of MIC's
From the text: as §3, §4, §5

| Compound | MIC (Kl. pneumoniae) [µg/mL] | MIC (D. pneumoniae) [µg/mL] | MIC (S. aureus) [µg/mL] | MIC (S. viridans) [µg/mL] | MIC [2] [µg/mL] | MIC (E. coli [3]) [µg/mL] | MIC (N. meningitidis) [µg/mL] | MIC (N. gonorrhoeae) [µg/mL] | MIC (H. influenzae) [µg/mL] | also measured |
| --- | --- | --- | --- | --- | --- | --- | --- | --- | --- | --- |
| CO/N=C(\C(=O)N[C@@H]1C(=O)N2C(C(=O)O)=C(CSc3ccc4nn(C)c(=O)n4n3)CS[C@H]12)c1ccco1 [BB-S510, 7-[(2Z)-2-methoxyimino(fur-2-yl)acetamido]-3-(2-methyl-2,3-dihydro-s-triazolo[4,3-b]pyridazin-3-on-6-ylthiomethyl)-3-cephem-4-carboxylic acid sodium salt] | 6.3 | 0.021 | 0.62 | 0.13 | 6.26 | 2.11 | 1.03 | 0.26 | 0.35 | MIC (S. marcescens [1]): 7.9 µg/mL; MIC (Proteus; 6 strains, Mueller-Hinton agar, serial dilution method): 1.39 µg/mL; MIC (S. pyogenes; 5 strains, Mueller-Hinton agar, serial dilution method): 0.0125 µg/mL; in vitro antibacterial potency (bacteria): considerably superior; MIC (E. coli, Cephalosporin-R): 3.1 µg/mL; MIC [4]: 6.3 µg/mL; MIC (E. coli [5]): 0.1 µg/mL; MIC (Shigella, Salmonella): 0.5 µg/mL; MIC (Indole (-) Proteus): 1.1 µg/mL; MIC (P. aeruginosa): > 100 µg/mL; MIC (S. aureus, Penicillin-R): 0.1 µg/mL; MIC (Indole (+) Proteus): 0.2 µg/mL; MIC (S. marcescens [6]): 6.3 µg/mL; MIC (E. cloacae): 3.1 µg/mL; MIC (K. pneumoniae): 2.6 µg/mL |
| CO/N=C(\C(=O)N[C@@H]1C(=O)N2C(C(=O)O)=C(CSc3ccc4n[nH]c(=O)n4n3)CS[C@H]12)c1ccco1 [BB-S515, 7-[(2Z)-2-methoxyimino(fur-2-yl)acetamido]-3-(2,3-dihydro-s-triazolo[4,3-b]pyridazin-3-on-6-ylthiomethyl)-3-cephem-4-carboxylic acid sodium salt, reference compound] | 3.1 | 0.1 | 2.48 | 0.59 | 5.26 | 2.33 | 5.45 | 2.07 | 2.11 | MIC (Proteus): 1.11 µg/mL; MIC (S. pyogenes): 0.032 µg/mL |
